Test results: the NIST ThermoML archive (doi:10.1016/j.jct.2014.12.011)

Assay: mn = molality of the nth substance listed, in mol/kg
Conditions: 100 kPa, Liquid, Alternating current cell with electrodes

CCCCCCCC(=O)[O-].[Na+] [sodium octanoate] + O
electrical conductivity [S/m]
Conditions | 278.15 K | 288.15 K | 298.15 K | 308.15 K | 318.15 K | 328.15 K
m1 = 0.04715 | 0.168 | 0.223 | 0.284 | 0.35 | 0.421 | 0.494
m1 = 0.0899 | 0.299 | 0.398 | 0.508 | 0.627 | 0.754 | 0.885
m1 = 0.132 | 0.416 | 0.555 | 0.709 | 0.876 | 1.06 | 1.242
m1 = 0.1699 | 0.5102 | 0.6723 | 0.856 | 1.06 | 1.28 | 1.522
m1 = 0.2149 | 0.606 | 0.797 | 1.02 | 1.27 | 1.538 | 1.845
m1 = 0.2635 | 0.6914 | 0.924 | 1.18 | 1.47 | 1.88 | 2.213
m1 = 0.3059 | – | 0.976 | 1.29 | 1.742 | 2.106 | 2.49
m1 = 0.3464 | – | 1.18 | 1.536 | 1.913 | 2.314 | 2.734
m1 = 0.3898 | – | 1.29 | 1.67 | 2.09 | 2.526 | 2.99
m1 = 0.4368 | 1.015 | 1.4 | 1.811 | 2.26 | 2.74 | 3.25
m1 = 0.4813 | 1.09 | 1.49 | 1.934 | 2.42 | 2.938 | 3.48
m1 = 0.5288 | 1.16 | 1.58 | 2.06 | 2.58 | 3.138 | 3.719
m1 = 0.5785 | 1.224 | 1.68 | 2.19 | 2.75 | 3.34 | 3.96
m1 = 0.63 | 1.29 | 1.77 | 2.317 | 2.912 | 3.545 | 4.205
m1 = 0.6829 | 1.35 | 1.87 | 2.45 | 3.08 | 3.75 | 4.448
m1 = 0.7337 | 1.412 | 1.96 | 2.57 | 3.236 | 3.94 | 4.68

CCCCCCCCCCCC(=O)[O-].[Na+] [sodium dodecanoate] + O
Conditions | electrical conductivity [S/m]
298.15 K, m1 = 0.01084 | 0.0726
298.15 K, m1 = 0.01211 | 0.0809
298.15 K, m1 = 0.01337 | 0.0892
298.15 K, m1 = 0.01462 | 0.0974
298.15 K, m1 = 0.01585 | 0.105
298.15 K, m1 = 0.01707 | 0.113
298.15 K, m1 = 0.01827 | 0.121
298.15 K, m1 = 0.01946 | 0.129
298.15 K, m1 = 0.02064 | 0.136
298.15 K, m1 = 0.0218 | 0.143
298.15 K, m1 = 0.02295 | 0.151
298.15 K, m1 = 0.02408 | 0.158
298.15 K, m1 = 0.0252 | 0.165
298.15 K, m1 = 0.02631 | 0.172
298.15 K, m1 = 0.02741 | 0.178
298.15 K, m1 = 0.02849 | 0.183
298.15 K, m1 = 0.02957 | 0.187
298.15 K, m1 = 0.03063 | 0.1909
298.15 K, m1 = 0.03168 | 0.194
298.15 K, m1 = 0.03271 | 0.198
298.15 K, m1 = 0.03374 | 0.201
298.15 K, m1 = 0.03476 | 0.204
298.15 K, m1 = 0.03576 | 0.207
298.15 K, m1 = 0.03675 | 0.2102
308.15 K, m1 = 0.01107 | 0.0928
308.15 K, m1 = 0.01239 | 0.103
308.15 K, m1 = 0.0137 | 0.114
308.15 K, m1 = 0.01499 | 0.125
308.15 K, m1 = 0.01626 | 0.135
308.15 K, m1 = 0.01752 | 0.145
308.15 K, m1 = 0.01876 | 0.155
308.15 K, m1 = 0.01999 | 0.165
308.15 K, m1 = 0.0212 | 0.175
308.15 K, m1 = 0.0224 | 0.185
308.15 K, m1 = 0.02359 | 0.194
308.15 K, m1 = 0.02476 | 0.203
308.15 K, m1 = 0.02591 | 0.212
308.15 K, m1 = 0.02706 | 0.219
308.15 K, m1 = 0.02819 | 0.225
308.15 K, m1 = 0.0293 | 0.231
308.15 K, m1 = 0.03041 | 0.236
308.15 K, m1 = 0.0315 | 0.2405
308.15 K, m1 = 0.03257 | 0.245
308.15 K, m1 = 0.03364 | 0.249
308.15 K, m1 = 0.0347 | 0.254
308.15 K, m1 = 0.03574 | 0.258
308.15 K, m1 = 0.03677 | 0.262
308.15 K, m1 = 0.03779 | 0.266
318.15 K, m1 = 0.01302 | 0.131
318.15 K, m1 = 0.01423 | 0.142
318.15 K, m1 = 0.01542 | 0.154
318.15 K, m1 = 0.0166 | 0.165
318.15 K, m1 = 0.01777 | 0.176
318.15 K, m1 = 0.01892 | 0.188
318.15 K, m1 = 0.02006 | 0.198
318.15 K, m1 = 0.02118 | 0.209
318.15 K, m1 = 0.02229 | 0.22
318.15 K, m1 = 0.02339 | 0.23
318.15 K, m1 = 0.02448 | 0.24
318.15 K, m1 = 0.02555 | 0.249
318.15 K, m1 = 0.02661 | 0.258
318.15 K, m1 = 0.02766 | 0.265
318.15 K, m1 = 0.0287 | 0.272
318.15 K, m1 = 0.02972 | 0.278
318.15 K, m1 = 0.03074 | 0.283
318.15 K, m1 = 0.03174 | 0.288
318.15 K, m1 = 0.03274 | 0.293
318.15 K, m1 = 0.03372 | 0.298
318.15 K, m1 = 0.03469 | 0.303
318.15 K, m1 = 0.03565 | 0.308
318.15 K, m1 = 0.0366 | 0.312
318.15 K, m1 = 0.03754 | 0.317
328.15 K, m1 = 0.01297 | 0.151
328.15 K, m1 = 0.01413 | 0.164
328.15 K, m1 = 0.01527 | 0.177
328.15 K, m1 = 0.01641 | 0.189
328.15 K, m1 = 0.01752 | 0.202
328.15 K, m1 = 0.01863 | 0.214
328.15 K, m1 = 0.01972 | 0.226
328.15 K, m1 = 0.0208 | 0.238
328.15 K, m1 = 0.02187 | 0.249
328.15 K, m1 = 0.02292 | 0.26
328.15 K, m1 = 0.02397 | 0.271
328.15 K, m1 = 0.025 | 0.282
328.15 K, m1 = 0.02602 | 0.293
328.15 K, m1 = 0.02703 | 0.303
328.15 K, m1 = 0.02802 | 0.311
328.15 K, m1 = 0.02901 | 0.319
328.15 K, m1 = 0.02999 | 0.326
328.15 K, m1 = 0.03095 | 0.332
328.15 K, m1 = 0.03191 | 0.338
328.15 K, m1 = 0.03285 | 0.344
328.15 K, m1 = 0.03379 | 0.35
328.15 K, m1 = 0.03471 | 0.355
328.15 K, m1 = 0.03563 | 0.36
328.15 K, m1 = 0.03653 | 0.366
